Some test systems named below: OVCAR-8 ovarian; SK-MEL-5 melanoma; UACC-62 melanoma; NCI-H23 lung; A549 NSCLC; EKVX NSCLC; SNB-19 CNS; OVCAR-4 ovarian; HOP-92 NSCLC; M14 melanoma.
Test in all cases: NCI-60 cell line screen, 48 h

In PubChem BioAssay (NCI) one finds GI50 and TGI data, which are given here for 8 molecules.

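Tested at 5 concentrations; 48 h exposure; 96-well plates; endpoints linearly interpolated, else capped at highest concentration. Here, GI50 denotes the concentration required for 50% inhibition of growth. TGI: concentration producing complete growth inhibition.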 Bounds are passed on as bounds.

Take `COc1ccc(C(=O)N2c3ccccc3Sc3ccccc32)c(OC)c1`: the GI50 was 0.749 µM in the assay on OVCAR-8 ovarian; 0.408 µM with SK-MEL-5 melanoma; 0.321 µM in the assay on UACC-62 melanoma; 0.776 µM in the assay on NCI-H23 lung; 0.785 µM in the assay on A549 NSCLC; 0.851 µM in the assay with EKVX NSCLC. In addition, the GI50 in the assay on SNB-19 CNS was 0.551 µM; in the assay on OVCAR-4 ovarian, 3.17 µM; in the assay on HOP-92 NSCLC it was 0.374 µM; with M14 melanoma, 0.359 µM. The TGI with OVCAR-8 ovarian, with SK-MEL-5 melanoma, in the assay on UACC-62 melanoma, in the assay with NCI-H23 lung, in the assay on A549 NSCLC and in the assay with EKVX NSCLC was above 100 µM in each case. The TGI in the assay with SNB-19 CNS was above 100 µM; in the assay with OVCAR-4 ovarian, above 100 µM; in the assay with HOP-92 NSCLC it was 97.2 µM; in the assay with M14 melanoma, above 100 µM.
Consider `COC1O[C@@H]2C[C@H]3C(C)(C)CCC[C@]3(C)C3=CCCC1[C@@]32C` (stereo not given in full), for which the GI50 in the assay with OVCAR-8 ovarian, in the assay with SK-MEL-5 melanoma, in the assay on UACC-62 melanoma, in the assay on NCI-H23 lung, in the assay on A549 NSCLC and with EKVX NSCLC was above 100 µM in each case. Besides, the GI50 with SNB-19 CNS, in the assay on OVCAR-4 ovarian, in the assay on HOP-92 NSCLC and with M14 melanoma was above 100 µM in each case. The TGI with OVCAR-8 ovarian, in the assay with SK-MEL-5 melanoma, with UACC-62 melanoma, with NCI-H23 lung, in the assay with A549 NSCLC and in the assay on EKVX NSCLC was above 100 µM throughout. The TGI in the assay with SNB-19 CNS, in the assay on OVCAR-4 ovarian, in the assay on HOP-92 NSCLC and with M14 melanoma was above 100 µM each time.
Consider `CC(=O)c1c(C(F)(F)F)n([O-])c2ccc(C)cc2[n+]1=O`, for which the GI50 in the assay with OVCAR-8 ovarian is 3.82 µM; with SK-MEL-5 melanoma it was 1.07 µM; in the assay with UACC-62 melanoma, 1.31 µM; with NCI-H23 lung, 2.08 µM; in the assay on A549 NSCLC it was 4.48 µM; in the assay on EKVX NSCLC, 1.19 µM. Further, the GI50 is 6.03 µM with SNB-19 CNS, 4.88 µM with OVCAR-4 ovarian, 1.11 µM in the assay with HOP-92 NSCLC and 2.41 µM with M14 melanoma. In addition, the TGI with OVCAR-8 ovarian was above 100 µM; in the assay with SK-MEL-5 melanoma, 3 µM; with UACC-62 melanoma, 3.34 µM; in the assay with NCI-H23 lung, 11.2 µM; in the assay with A549 NSCLC, 26.6 µM; with EKVX NSCLC it was 4.59 µM. For the same molecule, the TGI with SNB-19 CNS is above 100 µM; with OVCAR-4 ovarian it was above 100 µM; in the assay with HOP-92 NSCLC it was 4.81 µM; in the assay with M14 melanoma, 8.88 µM.
Take `Cn1cc(-c2nonc2-c2cn(C)c3ccccc23)c2ccccc21`: the GI50 with OVCAR-8 ovarian was 1.5 µM; in the assay with SK-MEL-5 melanoma it was 1.34 µM; with UACC-62 melanoma, 0.442 µM; in the assay on NCI-H23 lung, 1.98 µM; with A549 NSCLC it was 1.22 µM; in the assay with EKVX NSCLC it was 1.7 µM. Besides, the GI50 in the assay with SNB-19 CNS was 0.91 µM; in the assay on OVCAR-4 ovarian, 2.74 µM; with HOP-92 NSCLC, 4.16 µM; with M14 melanoma, 0.469 µM. Also, the TGI in the assay on OVCAR-8 ovarian, with SK-MEL-5 melanoma, in the assay with UACC-62 melanoma, in the assay on NCI-H23 lung, with A549 NSCLC and in the assay on EKVX NSCLC was above 100 µM each time. For the same molecule, the TGI in the assay with SNB-19 CNS, in the assay on OVCAR-4 ovarian, in the assay with HOP-92 NSCLC and in the assay with M14 melanoma was above 100 µM in each case.
Consider `COc1ccc(-c2cc(=O)c3c(OC)c(OC)c(OC)c(OC)c3o2)cc1`, for which the TGI with OVCAR-8 ovarian was above 100 µM; with SK-MEL-5 melanoma, above 100 µM; with UACC-62 melanoma, 84 µM; in the assay on NCI-H23 lung it was above 100 µM; in the assay on A549 NSCLC, above 100 µM; in the assay with EKVX NSCLC, above 100 µM. Besides, the TGI with SNB-19 CNS, with OVCAR-4 ovarian, with HOP-92 NSCLC and in the assay with M14 melanoma was above 100 µM throughout.
Take `Cc1cccc(NC(=O)c2sc3nc4c(cc3c2N)CN(Cc2ccccc2)CC4)c1C`: the GI50 in the assay on OVCAR-8 ovarian is 0.297 µM; in the assay on SK-MEL-5 melanoma, 0.213 µM; with UACC-62 melanoma, 0.274 µM; in the assay with NCI-H23 lung, 0.256 µM; in the assay on A549 NSCLC, 0.381 µM; with EKVX NSCLC it was 0.45 µM. For the same molecule, the GI50 in the assay with SNB-19 CNS was 0.283 µM; in the assay with OVCAR-4 ovarian it was 0.971 µM; with HOP-92 NSCLC, 0.736 µM; in the assay on M14 melanoma it was 0.149 µM. Moreover, the TGI in the assay on OVCAR-8 ovarian, in the assay on SK-MEL-5 melanoma, in the assay on UACC-62 melanoma, with NCI-H23 lung, in the assay on A549 NSCLC and in the assay on EKVX NSCLC was above 50 µM in each case. Also, the TGI is above 50 µM in the assay on SNB-19 CNS, 39 µM in the assay on OVCAR-4 ovarian, 47.3 µM with HOP-92 NSCLC and 33.2 µM in the assay on M14 melanoma.
Regarding `COc1ccc2cc(-c3c(-c4ccncc4)nc(-c4ccc(S(C)=O)cc4)n3C)ccc2c1` (stereo not given), the GI50 was 17.9 µM with OVCAR-8 ovarian; 5.58 µM in the assay on SK-MEL-5 melanoma; 21 µM in the assay on UACC-62 melanoma; above 25 µM in the assay with NCI-H23 lung; above 25 µM in the assay with A549 NSCLC; 15.6 µM in the assay with EKVX NSCLC. In addition, the GI50 in the assay with SNB-19 CNS is above 20.8 µM; with OVCAR-4 ovarian, 20.6 µM; with HOP-92 NSCLC, 5.67 µM; with M14 melanoma it was above 25 µM. In addition, the TGI with OVCAR-8 ovarian was above 25 µM; in the assay with SK-MEL-5 melanoma it was above 21.2 µM; in the assay on UACC-62 melanoma, above 25 µM; in the assay on NCI-H23 lung, above 25 µM; in the assay with A549 NSCLC, above 25 µM; in the assay with EKVX NSCLC it was above 25 µM. In addition, the TGI with SNB-19 CNS, in the assay with OVCAR-4 ovarian, with HOP-92 NSCLC and in the assay on M14 melanoma was above 25 µM throughout.
Turning to `CN1COc2c(n(C)c(=O)[nH]c2=O)C1`, the TGI with OVCAR-8 ovarian, in the assay on SK-MEL-5 melanoma, in the assay with UACC-62 melanoma, in the assay on NCI-H23 lung, in the assay with A549 NSCLC and in the assay on EKVX NSCLC was above 100 µM throughout. The TGI in the assay with SNB-19 CNS, in the assay on OVCAR-4 ovarian, in the assay with HOP-92 NSCLC and with M14 melanoma was above 100 µM throughout.
